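Grown in 96-well plates, cells were treated for 48 hours with each compound at five concentrations. Insufficient inhibition: endpoint recorded as highest concentration tested. GI50 is the concentration that inhibits growth by half.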 Activity calls are given as the source filed them. Cut-off read from the data, not from the text of the source: active = GI50 up to about 1.1 µM and inactive = higher.
Columns and labels:
Test in all cases: growth of human tumour cells (NCI), 48 h
T47D = system: T47D
SF-539 = system: SF-539
LOX IMVI = system: LOX IMVI
HOP-92 = system: HOP-92
HCT-116 = system: HCT-116
HCT-15 = system: HCT-15
HT-29 = system: HT-29
NCI-H23 = system: NCI-H23
SK-MEL-5 = system: SK-MEL-5
MDA-MB-231 = system: MDA-MB-231
K562 = system: K562
NCI-H226 = system: NCI-H226
NCI-H522 = system: NCI-H522
SN12C = system: SN12C
NCI-H460 = system: NCI-H460
UO-31 = system: UO-31
A549 = system: A549
HCC 2998 = system: HCC 2998
BT-549 = system: BT-549

Structure (SMILES) | GI50 (T47D) | GI50 (SF-539) | GI50 (LOX IMVI) | GI50 (HOP-92) | GI50 (HCT-116) | GI50 (HCT-15) | GI50 (HT-29) | GI50 (NCI-H23) | GI50 (SK-MEL-5) | GI50 (MDA-MB-231) | GI50 (K562) | GI50 (NCI-H226) | GI50 (NCI-H522) | GI50 (SN12C) | GI50 (NCI-H460) | GI50 (UO-31) | GI50 (A549) | GI50 (HCC 2998) | GI50 (BT-549)
CCCCCc1cc2c(cc1O)CC[C@@H]1[C@@H]2CC[C@]2(C)[C@@H](O)CC[C@@H]12 | 24.5 µM (inactive) | 23.8 µM (inactive) | 18.2 µM (inactive) | 14.3 µM (inactive) | 17.3 µM (inactive) | 15.9 µM | 20 µM (inactive) | 21.3 µM (inactive) | 19.8 µM (inactive) | 18.4 µM (inactive) | 16.7 µM (inactive) | 14.5 µM (inactive) | 18.8 µM (inactive) | 16.2 µM (inactive) | 17.4 µM (inactive) | 13.9 µM (inactive) | 19.3 µM (inactive) | 24.3 µM (inactive) | 
CSc1ccc(NC(=S)NN(C)C)cc1 | > 10 µM (inactive) | > 10 µM (inactive) | > 10 µM (inactive) | > 10 µM (inactive) | > 10 µM (inactive) | > 10 µM | > 10 µM (inactive) | > 10 µM (inactive) | > 10 µM (inactive) | > 10 µM (inactive) | > 10 µM (inactive) | > 10 µM (inactive) | > 10 µM (inactive) | > 10 µM (inactive) | > 10 µM (inactive) | > 10 µM (inactive) | > 10 µM (inactive) | > 10 µM (inactive) | 
N#Cc1c2nc3ccccc3nc2n2ccc3ccccc3c12 |  | > 100 µM (inactive) |  | > 100 µM (inactive) | 54 µM (inactive) | > 100 µM | > 100 µM (inactive) | 68.4 µM (inactive) | > 100 µM (inactive) |  | > 100 µM (inactive) | > 100 µM (inactive) | > 100 µM (inactive) | > 100 µM (inactive) | > 100 µM (inactive) | > 100 µM (inactive) | > 100 µM (inactive) | > 100 µM (inactive) | 
O=C1NCCCNCCCNCCCNC(=O)c2cccc1n2 |  | > 100 µM (inactive) | > 100 µM (inactive) |  | > 100 µM (inactive) | > 100 µM | > 100 µM (inactive) | > 100 µM (inactive) | > 100 µM (inactive) | > 100 µM (inactive) | > 100 µM (inactive) | > 100 µM (inactive) | > 100 µM (inactive) | > 100 µM (inactive) | > 100 µM (inactive) | > 100 µM (inactive) | > 100 µM (inactive) | > 100 µM (inactive) | > 100 µM (inactive)
CSC1(CC(=O)N(C)C)C(=O)Nc2ccccc21 (stereo not drawn) | > 100 µM (inactive) | > 100 µM (inactive) | > 100 µM (inactive) |  | > 100 µM (inactive) | > 100 µM | > 100 µM (inactive) | > 100 µM (inactive) | > 100 µM (inactive) |  | > 100 µM (inactive) | > 100 µM (inactive) |  |  | > 100 µM (inactive) | > 100 µM (inactive) | > 100 µM (inactive) | > 100 µM (inactive) | > 100 µM (inactive)
O=[N+]([O-])c1ccc(Cc2nc3cc4ccccc4cc3[nH]2)cc1C(F)(F)F | 3.33 µM (inactive) | 16.2 µM (inactive) | 18.5 µM (inactive) | 14.9 µM (inactive) | 13.9 µM (inactive) | 12 µM | 14.3 µM (inactive) | 12.5 µM (inactive) | 10.7 µM (inactive) |  | 6.56 µM (inactive) |  | 20.4 µM (inactive) | 18.7 µM (inactive) | 7.82 µM (inactive) | 15.8 µM (inactive) | 13.9 µM (inactive) | 16.6 µM (inactive) | 18.2 µM (inactive)
N=C(N)NS(=O)(=O)c1ccc(NCCc2c3ccccc3nc3ccccc23)cc1 |  | > 100 µM (inactive) | 70.1 µM (inactive) | > 100 µM (inactive) | 41.9 µM (inactive) | > 100 µM | 64.4 µM (inactive) | > 10 µM (inactive) |  |  | 51.1 µM (inactive) | > 100 µM (inactive) | > 100 µM (inactive) | > 100 µM (inactive) | > 100 µM (inactive) | > 100 µM (inactive) | > 100 µM (inactive) | > 100 µM (inactive) | 
CCO/C=N\C1=C(C#N)SC2=N/C(=C\c3ccc(OC)cc3)C(=O)N21 | > 100 µM (inactive) | > 100 µM (inactive) | > 100 µM (inactive) | > 100 µM (inactive) | > 100 µM (inactive) | 85.9 µM | > 100 µM (inactive) | > 100 µM (inactive) | > 100 µM (inactive) | 80.5 µM (inactive) | 25.9 µM (inactive) | > 100 µM (inactive) | 79.8 µM (inactive) | > 100 µM (inactive) |  | > 100 µM (inactive) | > 100 µM (inactive) | 39.5 µM (inactive) | 
CSc1cc(Cl)c(C)cc1S(=O)(=O)NC(=O)NNc1ccc(F)cc1 | > 100 µM (inactive) | > 100 µM (inactive) | > 100 µM (inactive) |  | > 100 µM (inactive) | > 100 µM | > 100 µM (inactive) |  | > 100 µM (inactive) | > 100 µM (inactive) | > 100 µM (inactive) | > 100 µM (inactive) | > 100 µM (inactive) | > 100 µM (inactive) | > 100 µM (inactive) |  | > 100 µM (inactive) | 30 µM (inactive) | 
COc1cc([C@@H]2c3cc4c(cc3[C@@H](Nc3ccc([N+](=O)[O-])cc3C(=O)c3ccccc3)[C@H]3COC(=O)[C@H]23)OCO4)cc(OC)c1OC | > 100 µM (inactive) | 0.201 µM (active) | 0.281 µM (active) | 8.05 µM (inactive) | 0.23 µM (active) | 0.269 µM | 0.32 µM (active) | 0.428 µM (active) | 0.2 µM (active) | 0.548 µM (active) | 0.156 µM (active) | 0.726 µM (active) | 0.16 µM (active) | 0.416 µM (active) | 0.258 µM (active) | 0.23 µM (active) | 0.446 µM (active) | 0.436 µM (active) | 
C/C(=N\Nc1nc2ccccc2s1)c1cccnn1 |  | 3.55 µM (inactive) |  | 2.32 µM (inactive) | 2.05 µM (inactive) | 0.333 µM | 3.24 µM (inactive) | 2.61 µM (inactive) | 1.31 µM (inactive) | 2.28 µM (inactive) | 3.23 µM (inactive) | 2.75 µM (inactive) | 1.72 µM (inactive) | 2.42 µM (inactive) | 2.65 µM (inactive) | 1.24 µM (inactive) | 2.23 µM (inactive) | 13.2 µM (inactive) | 5.32 µM (inactive)
CCN1C(=O)/C(=C/Nc2ccccc2)S/C1=N/Nc1nc(-c2ccc(O)c(O)c2)cs1 |  | 2.07 µM (inactive) | 6.08 µM (inactive) | 13.2 µM (inactive) | 8.63 µM (inactive) | 7.76 µM | 29.8 µM (inactive) | 7.18 µM (inactive) | 3.96 µM (inactive) | 6.65 µM (inactive) | 3.4 µM (inactive) | 51.5 µM (inactive) | 3.66 µM (inactive) | 4.24 µM (inactive) | 35.2 µM (inactive) | 8.02 µM (inactive) | 33.7 µM (inactive) |  | 
